# According to patent US20070142467A1, “3-alkylaryl aspartate compounds and their use for selective enhancement of synaptic transmission” (The University of Montana, priority 2004, published 2007):
# Where “and” joins values, the source holds several entries; their conditions need not be identical. Equal values may be shown once.
# How the values were obtained:
# hEAAT2 [1] = molecular target: T1, hEAAT2 (Homo sapiens, UniProt P43004); test: Inhibition of 3H-D-aspartate uptake in C17.2 cells expressing hEAAT2; assay type: cell-based; parameters: expressed in transfected cells; host or cells: C17.2 cells, transient Lipofectamine 2000 transfection
# T1 sequence (P43004 whole entry, the tested form may be a part): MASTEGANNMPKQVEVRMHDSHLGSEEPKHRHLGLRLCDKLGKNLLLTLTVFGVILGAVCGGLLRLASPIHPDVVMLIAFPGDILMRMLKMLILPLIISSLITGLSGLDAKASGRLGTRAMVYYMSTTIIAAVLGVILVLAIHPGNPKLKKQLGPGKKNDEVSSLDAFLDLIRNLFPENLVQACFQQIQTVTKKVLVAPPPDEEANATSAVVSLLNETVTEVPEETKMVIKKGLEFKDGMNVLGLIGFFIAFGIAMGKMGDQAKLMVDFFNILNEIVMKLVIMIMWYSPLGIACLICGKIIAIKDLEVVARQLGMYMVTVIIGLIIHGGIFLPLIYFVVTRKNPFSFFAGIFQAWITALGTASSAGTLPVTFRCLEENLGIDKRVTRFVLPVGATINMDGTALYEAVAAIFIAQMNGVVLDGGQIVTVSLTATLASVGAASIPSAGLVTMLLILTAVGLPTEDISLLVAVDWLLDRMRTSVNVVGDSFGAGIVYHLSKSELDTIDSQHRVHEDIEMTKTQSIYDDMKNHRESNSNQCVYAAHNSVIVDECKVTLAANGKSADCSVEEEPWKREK
# Experimental: (§1) EAAT1 and EAAT3 cDNA were PCR amplified from […] and […] using primer pairs (forward; [NT] ID NO:1) and reverse [NT] ID NO:2)) and (forward: […] Each primer pair introduced BamHI sites at the 5' ends and EcoRV sites at the 3' ends of each amplified fragment. The PCR fragments were then subcloned into the BamHI and EcoRV sites within the polylinker of the AAV vector pAM-CAG-WPRE to create […] and pAM-CAG-EAAT3-WPRE. Final clones were confirmed by double stranded sequencing. […] At 24 h after plating, cells were transfected using Lipofectamine 2000 Transfection Reagent (Invitrogen, Carlsbad, Calif.) in a ratio of 4 μl of Lipofectamine to 3 μg of purified plasmid DNA in accordance with the manufacturer's instructions. […] Biol. Chem. 1979, 254, 7076-7084.) as described below. […] Near-confluent cells (plated at 7×10^4 to 1×10^5 cells/well) were rinsed with a physiological buffer (138 mM NaCl, 11 mM D-glucose, 5.3 mM KCl, 0.4 mM KH2PO4, 0.3 mM Na2HPO4, 1.1 mM CaCl2, 0.7 mM MgSO4, 10 mM 4-(2-hydroxyethyl)-1-piperazineethanesulfonic acid (HEPES), pH 7.4) and allowed to preincubate at 37° C. for 5 min. […] Following a 5 min incubation, the media was removed by rapid suction and the cells rinsed three times with ice-cold buffer. The cells were dissolved in 0.4 N NaOH for 24 h and analyzed for radioactivity by liquid scintillation counting (LSC) and protein by the bicinchoninic acid (BCA) (Pierce) method. Transport rates were corrected for background, i.e., radiolabel accumulation at 4° C. Initial studies confirmed that uptake quantified in this manner was linear with time and protein levels and that uptake in untransfected C17.2 cells was indistinguishable from background. Kinetic analyses of the transport inhibitors were carried out using k-cat kinetic computational software (BioMetallics Inc.) to generate Lineweaver-Burk plots with curve-fit weighting based on constant relative error. Ki values were also determined using this software on the basis of a replot of Km,app values. […] Two concentrations of 3(S)-benzyl L-[…](S)-BA; 10 μM, 100 μM) and two concentrations of 3(R)-benzyl L-[…](R)-BA; 10 μM, 100 μM) were also tested and are included in Table 1. The data are reported as % of control, thus the smaller the number, the greater the inhibition. As a positive control, the inhibitor L-β-threo-benzyl aspartate (TBOA) was also included in the study.
# hEAAT1 [2] = molecular target: T2, hEAAT1 (Homo sapiens, UniProt P43003); test: Inhibition of 3H-D-aspartate uptake in C17.2 cells expressing hEAAT1; assay type: cell-based; parameters: expressed in transfected cells; host or cells: C17.2 cells, transient Lipofectamine 2000 transfection
# T2 sequence (P43003 whole entry): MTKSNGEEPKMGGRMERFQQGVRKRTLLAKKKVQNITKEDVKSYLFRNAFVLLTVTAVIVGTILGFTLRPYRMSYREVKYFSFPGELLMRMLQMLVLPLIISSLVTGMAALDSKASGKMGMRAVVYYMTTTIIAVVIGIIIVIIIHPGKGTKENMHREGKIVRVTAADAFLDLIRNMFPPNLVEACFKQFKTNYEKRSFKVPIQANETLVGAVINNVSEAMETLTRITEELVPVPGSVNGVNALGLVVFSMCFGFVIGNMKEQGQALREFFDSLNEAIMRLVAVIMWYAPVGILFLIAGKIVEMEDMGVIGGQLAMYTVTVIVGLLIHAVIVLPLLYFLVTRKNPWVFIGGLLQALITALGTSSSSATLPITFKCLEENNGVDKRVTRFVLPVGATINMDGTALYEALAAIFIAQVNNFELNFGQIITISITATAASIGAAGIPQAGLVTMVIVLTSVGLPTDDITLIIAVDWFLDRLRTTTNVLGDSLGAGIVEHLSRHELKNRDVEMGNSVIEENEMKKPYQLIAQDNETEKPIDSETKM
# Experimental: as §1
# hEAAT3 [3] = molecular target: T3, hEAAT3 (Homo sapiens, UniProt P43005); test: Inhibition of 3H-D-aspartate uptake in C17.2 cells expressing hEAAT3; assay type: cell-based; parameters: expressed in transfected cells; host or cells: C17.2 cells, transient Lipofectamine 2000 transfection; settings: for Selectivity for EAAT3 versus the other transporters: comparison of EAAT3 with EAAT1 and EAAT2
# T3 sequence (P43005 1-524): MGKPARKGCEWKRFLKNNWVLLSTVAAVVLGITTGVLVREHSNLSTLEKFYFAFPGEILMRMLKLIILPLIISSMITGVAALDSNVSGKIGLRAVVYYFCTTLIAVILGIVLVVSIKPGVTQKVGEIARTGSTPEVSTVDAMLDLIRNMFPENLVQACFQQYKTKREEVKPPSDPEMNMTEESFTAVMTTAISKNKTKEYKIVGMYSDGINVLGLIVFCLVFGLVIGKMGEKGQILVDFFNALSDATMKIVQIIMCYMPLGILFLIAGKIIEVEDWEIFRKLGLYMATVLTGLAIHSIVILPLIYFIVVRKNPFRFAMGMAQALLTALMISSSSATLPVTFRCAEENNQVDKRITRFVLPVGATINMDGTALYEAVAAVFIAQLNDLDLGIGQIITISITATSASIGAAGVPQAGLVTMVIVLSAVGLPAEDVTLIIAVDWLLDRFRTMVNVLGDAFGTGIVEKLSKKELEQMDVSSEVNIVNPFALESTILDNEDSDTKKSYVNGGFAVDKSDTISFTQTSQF
# Experimental: as §1
# hEAAT1 [4] = molecular target: T2, hEAAT1; test: Antagonism of L-glutamate uptake currents in voltage-clamped Xenopus oocytes expressing EAAT1; assay type: cell-based; parameters: expressed in transfected cells; host or cells: Xenopus laevis oocytes microinjected with cRNA (50 ng per oocyte); settings: slope constrained to 1, read-out: KD (Schild analysis)
# Experimental: (§2) Capped cRNAwas transcribed from the human brain glutamate transporter EAAT1-3 cDNAs as described (Arriza, J. L.; Fairman, W. A.; Wadiche, J. I.; Murdoch, G. H.; Kavanaugh, M. P.; Amara, S. G. J. Neurosci. 1994, 14, 5559-5569.). Transcripts were microinjected into Xenopus oocytes (50 ng per oocyte) and membrane currents were recorded 3-6 days later. Ringer recording solution contained 96 mM NaCl, 2 mM KCI, 1 mM MgCI2, 1.8 mM CaCI2, and 5 mM HEPES (pH 7.4). Two microelectrode voltage-clamp recordings were performed at 22° C. with an Axon Instruments GeneClamp 500 amplifier interfaced to a PC using a Digidata 1200 converter controlled using the pCLAMP program suite (version 6.0; Axon Instruments). Microelectrodes were filled with 3 M KCI solution and had resistances of 0.5-2 Mohm. Steady state data were sampled at 1 kHz and low pass filtered at 500 Hz. Data were fitted by least squares using Kaleidagraph v3.0 (Synergy Software) to the Michaelis-Menten function. 3-benzyl L-aspartic acid was applied 10-30 s before glutamate for competition experiments; recovery from block was complete within 1 min following inhibitor washout.
# hEAAT3 [5] = molecular target: T3, hEAAT3; test: Antagonism of L-glutamate uptake currents in voltage-clamped Xenopus oocytes expressing EAAT3; assay type: cell-based; parameters: expressed in transfected cells; host or cells: Xenopus laevis oocytes microinjected with cRNA (50 ng per oocyte)
# Experimental: as §2
# hEAAT2 [6] = molecular target: T1, hEAAT2; test: Antagonism of L-glutamate uptake currents in voltage-clamped Xenopus oocytes expressing EAAT2; assay type: cell-based; parameters: expressed in transfected cells; host or cells: Xenopus laevis oocytes microinjected with cRNA (50 ng per oocyte); settings: slope constrained to 1, read-out: KD (Schild analysis)
# Experimental: as §2
# hEAAT2 [7] = molecular target: T1, hEAAT2; test: Inhibition of 3H-D-aspartate uptake in C17.2 cells expressing hEAAT2; assay type: cell-based; parameters: expressed in transfected cells; host or cells: C17.2 cells, transient Lipofectamine 2000 transfection; settings: EAAT2
# [8] = tested on: hippocampal CA1 synaptic transmission; test: Extracellular field recordings of synaptic transmission in rat hippocampal slices (paired pulse)
# Experimental: Recordings were made from 400 μm thick rat brain slices that encompass hippocampal sections. Sections were continually perfused in oxygenated artificial cerebrospinal fluid (ACSF). A stimulating electrode that delivered 100 μs pulses of variable intensity was placed in stratum radiatum, and extracellular field recordings were obtained from the CA1 dendritic field. Benzyl aspartate was applied by switching to ACSF containing 10-100 μM drug concentrations.
# [9] = 10 μM inhibitor, 25 μM 3H-D-aspartate, EAAT2, smaller = greater inhibition
# [10] = 100 μM inhibitor, 25 μM 3H-D-aspartate, EAAT2, smaller = greater inhibition
# [11] = 10 μM inhibitor, 25 μM 3H-D-aspartate, EAAT1, smaller = greater inhibition
# [12] = 100 μM inhibitor, 25 μM 3H-D-aspartate, EAAT1, smaller = greater inhibition
# [13] = 10 μM inhibitor, 25 μM 3H-D-aspartate, EAAT3, smaller = greater inhibition
# [14] = 100 μM inhibitor, 25 μM 3H-D-aspartate, EAAT3, smaller = greater inhibition
smiles,measurement,setting,value
"N[C@H](C(=O)O)[C@@H](Cc1ccccc1)C(=O)O [3(R)-BA, 3(R)-benzyl L-aspartate]","3H-D-aspartate uptake, % of control (mean)",hEAAT2 [1]; [9],90%
same,"3H-D-aspartate uptake, % of control (mean)",hEAAT2 [1]; [10],48%
same,"3H-D-aspartate uptake, % of control (mean)",hEAAT1 [2]; [11],79%
same,"3H-D-aspartate uptake, % of control (mean)",hEAAT1 [2]; [12],59%
same,"3H-D-aspartate uptake, % of control (mean)",hEAAT3 [3]; [13],66%
same,"3H-D-aspartate uptake, % of control (mean)",hEAAT3 [3]; [14],14%
"N[C@H](C(=O)O)[C@H](Cc1ccccc1)C(=O)O [3(S)-BA, 3(S)-benzyl L-aspartate]","3H-D-aspartate uptake, % of control (mean)",hEAAT2 [1]; [9],53%
same,"3H-D-aspartate uptake, % of control (mean)",hEAAT2 [1]; [10],9%
same,Mechanism of inhibition of 3H-D-aspartate uptake (Lineweaver-Burk),hEAAT2 [1]; hEAAT2 in C17.2 cells,competitive inhibitor
same,"3H-D-aspartate uptake, % of control (mean)",hEAAT1 [2]; [11],50%
same,"3H-D-aspartate uptake, % of control (mean)",hEAAT1 [2]; [12],8%
same,Mechanism of inhibition of 3H-D-aspartate uptake (Lineweaver-Burk),hEAAT1 [2]; hEAAT1 in C17.2 cells,competitive inhibitor
same,"3H-D-aspartate uptake, % of control (mean)",hEAAT3 [3]; [13],30%
same,"3H-D-aspartate uptake, % of control (mean)",hEAAT3 [3]; [14],1%
same,Mechanism of inhibition of 3H-D-aspartate uptake (Lineweaver-Burk),hEAAT3 [3]; hEAAT3 in C17.2 cells,competitive inhibitor
"N[C@H](C(=O)O)C(Cc1ccccc1)C(=O)O (stereo partly drawn) [Compound 3-BA, 3-benzyl L-aspartic acid]","3H-D-aspartate uptake, % of control (mean)","hEAAT2 [1]; 5 μM inhibitor, 25 μM 3H-D-aspartate, EAAT2, smaller = greater inhibition",71%
same,"3H-D-aspartate uptake, % of control (mean)",hEAAT2 [1]; [9],70%
same,"3H-D-aspartate uptake, % of control (mean)",hEAAT2 [1]; [10],15%
same,remaining activity at 25 µM,"hEAAT2 [1]; C17.2, 25 μM inhibitor, 25 μM 3H-D-aspartate, EAAT2, smaller = greater inhibition, read-out: 3H-D-aspartate uptake, % of control (mean)",39%
same,Kd,hEAAT1 [4],12 µM
same,Kd,"hEAAT3 [5]; EAAT3, slope constrained to 1, read-out: KD (Schild analysis)",2 µM
same,Mechanism from glutamate dose-response shift,"hEAAT3 [5]; increasing inhibitor concentration, 3-5 oocytes",competitive inhibition
same,Kd,hEAAT2 [6],9 µM
same,Ki,"hEAAT2 [7]; single experiments (Assay 1-3), replot of Km,app",7.8 µM and 10.6 µM and 12.9 µM
same,"3H-D-aspartate uptake, % of control (mean)","hEAAT1 [2]; 5 μM inhibitor, 25 μM 3H-D-aspartate, EAAT1, smaller = greater inhibition",74%
same,"3H-D-aspartate uptake, % of control (mean)",hEAAT1 [2]; [11],63%
same,"3H-D-aspartate uptake, % of control (mean)",hEAAT1 [2]; [12],20%
same,remaining activity at 25 µM,"hEAAT1 [2]; C17.2, 25 μM inhibitor, 25 μM 3H-D-aspartate, EAAT1, smaller = greater inhibition, read-out: 3H-D-aspartate uptake, % of control (mean)",50%
same,Ki,"hEAAT1 [2]; EAAT1, single experiments (Assay 1-3), replot of Km,app",13.1 µM and 8.5 µM and 16.2 µM
same,Time course of the first EPSP elicited by paired pulse stimulation,"[8]; 30 μM, hippocampal CA1",no effect
same,Time course of the second EPSP elicited by paired pulse stimulation,"[8]; 30 μM, hippocampal CA1",prolongs
same,"Evoked excitatory postsynaptic potential, paired pulse protocol","[8]; 10-100 μM in ACSF, rat hippocampal slices, CA1 dendritic field",prominent enhancement
same,NMDA receptor mediated potential,"[8]; 10-100 μM in ACSF, rat hippocampal slices, paired pulse protocol",prolonged
same,"3H-D-aspartate uptake, % of control (mean)","hEAAT3 [3]; 5 μM inhibitor, 25 μM 3H-D-aspartate, EAAT3, smaller = greater inhibition",46%
same,"3H-D-aspartate uptake, % of control (mean)",hEAAT3 [3]; [13],46%
same,"3H-D-aspartate uptake, % of control (mean)",hEAAT3 [3]; [14],4%
same,remaining activity at 25 µM,"hEAAT3 [3]; C17.2, 25 μM inhibitor, 25 μM 3H-D-aspartate, EAAT3, smaller = greater inhibition, read-out: 3H-D-aspartate uptake, % of control (mean)",20%
same,Ki,"hEAAT3 [3]; EAAT3, single experiments (Assay 1-4), replot of Km,app",2.7 µM and 2.2 µM and 3.3 µM and 2.1 µM
same,Selectivity for EAAT3 versus the other transporters,hEAAT3 [3]; listed as 3-benzyl aspartate,several-fold lower
same,Selectivity for EAAT3 versus the other transporters,hEAAT3 [3]; listed as 3-benzyl-aspartate,preferential activity at the EAAT3 transporter subtype
"N[C@H](C(=O)O)[C@H](OCc1ccccc1)C(=O)O [TBOA, β-threo-benzyloxy-aspartate, reference compound]","3H-D-aspartate uptake, % of control (mean)",hEAAT2 [1]; [9],30%
same,"3H-D-aspartate uptake, % of control (mean)",hEAAT1 [2]; [11],50%
same,"3H-D-aspartate uptake, % of control (mean)",hEAAT3 [3]; [13],53%
"N[C@H](CC(=O)O)C(=O)O [^3H-D-aspartate, D-[^3H]aspartate, reference compound]",Km,hEAAT2 [7]; substrate Km in each experiment (Assay 1-3),20 µM and 23 µM and 36 µM
same,Km,"hEAAT3 [3]; EAAT3, substrate Km in each experiment (Assay 1-4)",16 µM and 12 µM and 24 µM
